“And” between values parts separate entries of the source, which are not always exact repeats. Identical values can stand only once. “Also recorded” adds a separate entry of the source.
Experiments:
OATP1B3 = test: Uptake substrate investigation in HEK293 cells expressing transporter
Source text: (§2) The engineered NIH-3T3 (CD74-ROS1 fusion gene) cells was obtained from Nanjing GenScript Biotechnology Co., Ltd. The engineered Ba/F3 (SLC34A2-ROS1 fusion gene) cell line was obtained from Kyinno Biotechnology (Beijing) Co., Ltd. The HCC-78 (SLC34A2-ROS1 fusion gene) cell line was purchased from Shanghai Hongshun Biotechnology Co., Ltd. The engineered NIH-3T3 (CD74-ROS1 fusion gene) cells was obtained from Nanjing GenScript Biotechnology Co., Ltd. The engineered HEK293 cell lines with OATP1B1 (Lot. No ESH6G27), OATP1B3 (Lot. No ESH7G27), OCT2 (Lot. No ESH9G27), OAT1 (Lot. No ESHCG27), OAT3 (Lot. […] No ESHDG27) were purchased from GenoMembrane and validated using the specific substrate for each transporter. All cells were cultured at 37℃ in a 5% CO2 atmosphere. Cell culture reagents were obtained from Life Technologies, Inc. See Supplemental Table 1 for details on the source of the cell lines and the media used.

ALK^C1156Y = ALK^C1156Y (Homo sapiens, UniProt Q9UM73, C1156Y); test: HTRF kinase activity assay; type: biochemical
Experimental: After the kinase proteins, Ulight-peptide species, adenosine triphosphate (ATP), and compound were mixed, the reaction was carried out at room temperature. Reactions were quenched by the addition of ethylene diamine tetraacetic acid buffer containing Eu antibody and XL665-streptavidin at the indicated time points. Plate reading was performed using an Envision (Perkin Elmer, MA, USA) multifunctional microplate reader.

[1] = Recovery in dialysis device and stability in plasma during dialysis; type: in vitro ADME; conditions: 0.2, 2 and 10 µM, all species
Experimental: (§1) At three test concentrations (0.2, 2 and 10 µM), the plasma protein binding rate of iruplinalkib is as follows (Fig. 3a). […] With the increase of concentration, the protein binding rates of iruplinalkib in rat plasma decreased gradually, showing a certain concentration dependence, and there was no concentration dependence of protein binding rate observed in other species plasma.

OCT2 [2] = target: T1, OCT2 (Homo sapiens, UniProt O15244); test: Uptake substrate investigation in HEK293 cells expressing transporter; type: in vitro ADME; conditions: for Uptake transport activity, Mean / Ratio of uptake transit activity / Uptake transport activity, Net value: Suppl. Table 11; for Ratio of uptake transit activity / Uptake transport activity, Net value: OCT2-293 vs MOCK293
T1 construct: No ESH9G27; host or cells: HEK293
T1 sequence (O15244 1-555): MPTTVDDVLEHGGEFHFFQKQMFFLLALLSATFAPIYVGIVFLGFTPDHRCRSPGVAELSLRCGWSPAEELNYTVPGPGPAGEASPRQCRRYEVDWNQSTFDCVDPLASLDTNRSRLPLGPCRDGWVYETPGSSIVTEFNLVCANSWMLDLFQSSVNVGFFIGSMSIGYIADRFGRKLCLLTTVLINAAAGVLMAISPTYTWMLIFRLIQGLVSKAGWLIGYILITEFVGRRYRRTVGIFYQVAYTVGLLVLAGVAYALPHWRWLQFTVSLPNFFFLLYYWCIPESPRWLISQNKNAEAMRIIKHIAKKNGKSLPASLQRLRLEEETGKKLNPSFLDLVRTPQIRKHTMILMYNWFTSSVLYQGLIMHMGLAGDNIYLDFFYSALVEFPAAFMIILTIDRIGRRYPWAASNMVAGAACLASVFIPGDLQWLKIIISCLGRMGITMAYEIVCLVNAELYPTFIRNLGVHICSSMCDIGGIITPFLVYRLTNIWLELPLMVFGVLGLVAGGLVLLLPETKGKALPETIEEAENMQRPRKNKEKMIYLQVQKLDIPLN

OCT2 [3] = target: T1, OCT2; test: Uptake inhibitor investigation in HEK293 cells expressing transporter; type: in vitro ADME; conditions: metformin as the substrate
[4] = Plasma protein binding rate (dialysis); type: in vitro ADME
Experimental: as §1

BCRP = target: T2, BCRP (Homo sapiens, UniProt Q9UNQ0); test: ABC efflux transporter inhibitor test on Caco-2 cells (E3S efflux)
T2 sequence (Q9UNQ0 1-655): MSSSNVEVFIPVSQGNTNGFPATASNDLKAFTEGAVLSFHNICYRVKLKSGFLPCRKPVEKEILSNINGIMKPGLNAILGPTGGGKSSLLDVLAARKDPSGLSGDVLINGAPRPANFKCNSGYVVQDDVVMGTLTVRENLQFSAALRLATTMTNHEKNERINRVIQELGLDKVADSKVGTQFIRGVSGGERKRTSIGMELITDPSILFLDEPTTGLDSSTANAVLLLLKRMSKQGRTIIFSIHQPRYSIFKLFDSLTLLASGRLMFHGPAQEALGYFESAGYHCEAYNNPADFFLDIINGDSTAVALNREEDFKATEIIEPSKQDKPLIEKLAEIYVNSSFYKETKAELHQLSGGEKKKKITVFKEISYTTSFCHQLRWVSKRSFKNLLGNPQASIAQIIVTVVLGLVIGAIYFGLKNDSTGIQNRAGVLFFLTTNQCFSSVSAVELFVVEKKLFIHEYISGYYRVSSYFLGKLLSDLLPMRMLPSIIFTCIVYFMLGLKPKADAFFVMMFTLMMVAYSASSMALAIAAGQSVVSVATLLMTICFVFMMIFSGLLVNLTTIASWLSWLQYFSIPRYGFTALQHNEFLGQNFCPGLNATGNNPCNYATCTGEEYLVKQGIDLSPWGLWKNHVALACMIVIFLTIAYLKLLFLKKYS

EGFR wild type = EGFR wild type (Homo sapiens, UniProt P00533); test: Z'-LYTE kinase selectivity; conditions: read-out: IC50 EGFR wild type
OAT3 [5] = test: Uptake substrate investigation in HEK293 cells expressing transporter
Source text: as §2

OAT3 [6] = test: Uptake inhibitor investigation in HEK293 cells expressing transporter; type: in vitro ADME
MRP2 = target: T3, MRP2 (Homo sapiens, UniProt Q92887); test: MRP2 inhibitor investigation; type: in vitro ADME
T3 construct: host or cells: membrane vesicles ('Membrane capsule'), MRP2 versus NC control, with ATP or AMP

[7] = MOCK293, test substrate 10 μM, no inhibitor, OATP1B3 pre-test
[8] = OATP1B1-293 (so in the source), test substrate 10 μM, no inhibitor, OATP1B3 pre-test
[9] = transporter cells vs MOCK293, test substrate 10 μM, no inhibitor, OATP1B3 pre-test
[10] = human, Caco-2 cells, probe E3S (10 µM)
[11] = MOCK293, test substrate 10 μM, no inhibitor, OAT3 pre-test
[12] = OATP1B1-293 (so in the source), test substrate 10 μM, no inhibitor, OAT3 pre-test
[13] = transporter cells vs MOCK293, test substrate 10 μM, no inhibitor, OAT3 pre-test
[14] = human, HEK293 cells expressing OAT3, probe ATV, 1 μM, read-out: Inhibition rate

T3 sequence (Q92887 whole entry): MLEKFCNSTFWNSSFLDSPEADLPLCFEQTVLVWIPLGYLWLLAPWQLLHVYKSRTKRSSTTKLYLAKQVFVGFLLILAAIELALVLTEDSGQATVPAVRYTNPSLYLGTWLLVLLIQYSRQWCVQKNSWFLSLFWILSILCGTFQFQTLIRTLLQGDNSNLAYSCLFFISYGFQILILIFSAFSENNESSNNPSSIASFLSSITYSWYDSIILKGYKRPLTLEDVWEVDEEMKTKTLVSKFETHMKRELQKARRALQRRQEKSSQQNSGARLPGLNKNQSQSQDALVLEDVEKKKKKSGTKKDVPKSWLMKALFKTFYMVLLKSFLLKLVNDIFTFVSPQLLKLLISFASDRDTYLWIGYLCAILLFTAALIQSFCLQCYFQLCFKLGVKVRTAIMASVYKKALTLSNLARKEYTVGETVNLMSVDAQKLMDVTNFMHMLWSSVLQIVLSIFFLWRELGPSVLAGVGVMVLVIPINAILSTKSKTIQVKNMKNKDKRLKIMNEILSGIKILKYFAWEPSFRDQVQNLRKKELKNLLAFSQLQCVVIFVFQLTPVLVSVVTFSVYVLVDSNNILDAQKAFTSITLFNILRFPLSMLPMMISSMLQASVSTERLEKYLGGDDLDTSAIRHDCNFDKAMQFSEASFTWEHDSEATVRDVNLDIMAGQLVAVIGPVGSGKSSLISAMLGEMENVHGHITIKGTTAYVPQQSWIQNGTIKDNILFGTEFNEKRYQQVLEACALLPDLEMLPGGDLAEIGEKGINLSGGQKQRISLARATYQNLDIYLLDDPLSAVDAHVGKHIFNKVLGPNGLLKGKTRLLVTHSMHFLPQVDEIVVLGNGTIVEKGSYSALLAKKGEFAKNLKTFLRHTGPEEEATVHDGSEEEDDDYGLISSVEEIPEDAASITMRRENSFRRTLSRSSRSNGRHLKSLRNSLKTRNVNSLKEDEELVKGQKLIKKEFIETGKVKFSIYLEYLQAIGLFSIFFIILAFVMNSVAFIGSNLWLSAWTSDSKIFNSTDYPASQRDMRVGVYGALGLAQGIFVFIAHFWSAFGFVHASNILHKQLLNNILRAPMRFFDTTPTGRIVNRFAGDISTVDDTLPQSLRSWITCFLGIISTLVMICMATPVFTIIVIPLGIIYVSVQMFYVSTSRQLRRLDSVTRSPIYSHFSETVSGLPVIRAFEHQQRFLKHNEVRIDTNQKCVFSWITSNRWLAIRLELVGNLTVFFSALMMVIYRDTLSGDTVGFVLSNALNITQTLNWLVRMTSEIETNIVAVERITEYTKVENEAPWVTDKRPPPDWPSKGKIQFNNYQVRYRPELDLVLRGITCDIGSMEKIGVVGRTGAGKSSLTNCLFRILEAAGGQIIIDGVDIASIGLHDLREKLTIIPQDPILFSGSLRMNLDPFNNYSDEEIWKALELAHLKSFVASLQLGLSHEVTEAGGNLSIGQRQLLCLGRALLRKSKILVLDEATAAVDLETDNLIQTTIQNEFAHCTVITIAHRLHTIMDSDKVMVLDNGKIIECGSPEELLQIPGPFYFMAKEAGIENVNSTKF
ALK^C1156Y, sequence (Q9UM73 19-1620 C1156Y): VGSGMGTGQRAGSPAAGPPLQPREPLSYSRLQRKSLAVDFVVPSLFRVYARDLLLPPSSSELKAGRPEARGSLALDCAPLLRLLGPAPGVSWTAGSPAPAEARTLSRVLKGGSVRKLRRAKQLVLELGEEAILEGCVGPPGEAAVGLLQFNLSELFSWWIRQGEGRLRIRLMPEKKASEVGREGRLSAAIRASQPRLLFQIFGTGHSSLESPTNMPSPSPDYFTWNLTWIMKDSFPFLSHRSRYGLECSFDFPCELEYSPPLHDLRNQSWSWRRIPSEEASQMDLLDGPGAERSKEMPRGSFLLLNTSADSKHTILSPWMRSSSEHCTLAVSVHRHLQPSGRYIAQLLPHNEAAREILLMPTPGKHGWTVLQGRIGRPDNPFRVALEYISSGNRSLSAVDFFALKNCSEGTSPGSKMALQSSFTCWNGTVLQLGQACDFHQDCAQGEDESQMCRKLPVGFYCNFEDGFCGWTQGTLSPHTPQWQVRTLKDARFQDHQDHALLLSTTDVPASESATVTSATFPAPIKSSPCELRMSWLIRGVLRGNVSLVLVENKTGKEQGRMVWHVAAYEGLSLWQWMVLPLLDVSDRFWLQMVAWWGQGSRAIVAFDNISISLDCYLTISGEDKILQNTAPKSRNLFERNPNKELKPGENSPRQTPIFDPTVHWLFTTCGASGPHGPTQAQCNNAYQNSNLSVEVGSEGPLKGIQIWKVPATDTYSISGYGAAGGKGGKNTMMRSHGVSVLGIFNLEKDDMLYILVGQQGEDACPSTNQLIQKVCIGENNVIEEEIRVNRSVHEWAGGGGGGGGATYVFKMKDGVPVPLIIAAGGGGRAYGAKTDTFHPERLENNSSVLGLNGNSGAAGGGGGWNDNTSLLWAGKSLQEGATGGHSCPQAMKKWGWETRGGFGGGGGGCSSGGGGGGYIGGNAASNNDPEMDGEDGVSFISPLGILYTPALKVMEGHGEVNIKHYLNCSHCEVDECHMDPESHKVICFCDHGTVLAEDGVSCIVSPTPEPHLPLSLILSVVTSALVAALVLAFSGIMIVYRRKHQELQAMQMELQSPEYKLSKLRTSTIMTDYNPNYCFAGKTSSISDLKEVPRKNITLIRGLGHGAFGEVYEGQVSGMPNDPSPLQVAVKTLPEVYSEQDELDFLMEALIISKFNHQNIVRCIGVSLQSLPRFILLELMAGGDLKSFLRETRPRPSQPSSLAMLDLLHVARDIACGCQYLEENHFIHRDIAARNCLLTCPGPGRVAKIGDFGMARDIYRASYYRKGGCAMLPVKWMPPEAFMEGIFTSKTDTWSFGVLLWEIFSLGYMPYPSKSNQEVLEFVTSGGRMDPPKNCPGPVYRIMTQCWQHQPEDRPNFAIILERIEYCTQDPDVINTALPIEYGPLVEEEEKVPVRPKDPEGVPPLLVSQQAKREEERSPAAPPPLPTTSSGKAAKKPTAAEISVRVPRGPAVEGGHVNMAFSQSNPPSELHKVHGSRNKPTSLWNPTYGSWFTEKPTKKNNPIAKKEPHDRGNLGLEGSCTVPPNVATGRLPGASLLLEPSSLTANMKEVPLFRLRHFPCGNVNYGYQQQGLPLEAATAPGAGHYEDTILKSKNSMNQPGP
EGFR wild type, sequence (P00533 25-1210): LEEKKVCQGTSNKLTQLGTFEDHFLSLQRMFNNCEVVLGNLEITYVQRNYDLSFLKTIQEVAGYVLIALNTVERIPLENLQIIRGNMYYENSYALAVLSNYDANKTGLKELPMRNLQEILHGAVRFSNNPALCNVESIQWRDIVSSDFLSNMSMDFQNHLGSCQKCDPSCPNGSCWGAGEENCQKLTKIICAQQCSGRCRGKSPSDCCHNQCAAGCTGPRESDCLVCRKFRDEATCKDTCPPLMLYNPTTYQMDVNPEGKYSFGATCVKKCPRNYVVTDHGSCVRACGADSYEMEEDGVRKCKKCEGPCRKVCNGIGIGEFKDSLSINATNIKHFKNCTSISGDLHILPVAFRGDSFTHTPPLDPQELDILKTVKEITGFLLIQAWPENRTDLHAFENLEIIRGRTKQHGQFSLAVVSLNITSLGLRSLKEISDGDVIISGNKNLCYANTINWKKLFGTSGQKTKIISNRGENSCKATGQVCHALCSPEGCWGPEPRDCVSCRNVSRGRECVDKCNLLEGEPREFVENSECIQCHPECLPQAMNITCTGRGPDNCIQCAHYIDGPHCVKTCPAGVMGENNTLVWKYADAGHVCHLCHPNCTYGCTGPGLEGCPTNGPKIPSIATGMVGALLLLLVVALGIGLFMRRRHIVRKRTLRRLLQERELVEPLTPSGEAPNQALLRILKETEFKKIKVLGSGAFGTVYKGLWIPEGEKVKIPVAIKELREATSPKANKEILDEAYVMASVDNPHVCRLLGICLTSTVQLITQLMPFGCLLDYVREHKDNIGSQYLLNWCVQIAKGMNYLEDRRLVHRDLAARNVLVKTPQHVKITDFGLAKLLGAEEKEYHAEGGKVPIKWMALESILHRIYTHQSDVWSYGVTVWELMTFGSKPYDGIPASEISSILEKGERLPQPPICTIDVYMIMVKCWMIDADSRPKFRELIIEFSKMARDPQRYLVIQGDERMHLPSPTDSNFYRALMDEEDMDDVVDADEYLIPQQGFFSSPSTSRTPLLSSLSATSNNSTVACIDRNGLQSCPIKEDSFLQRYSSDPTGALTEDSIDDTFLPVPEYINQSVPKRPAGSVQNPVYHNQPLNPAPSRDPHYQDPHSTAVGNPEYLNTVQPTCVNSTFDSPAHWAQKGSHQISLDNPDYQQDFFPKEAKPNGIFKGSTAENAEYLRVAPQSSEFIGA

COc1cc(N2CCC3(CCN(C)CC3)CC2)ccc1Nc1ncc(Cl)c(Nc2ccccc2P(C)(C)=O)n1 [Iruplinalkib]
Uptake transport activity, Mean (OATP1B3; MOCK293 (OATP1B3 set), 0.3 μM, Suppl. Table 11): 5.902 pmol/mg protein/min
Uptake transport activity, Mean (OATP1B3; MOCK293 (OATP1B3 set), 3 μM, Suppl. Table 11): 44.98 pmol/mg protein/min
Uptake transport activity, Mean (OATP1B3; MOCK293 (OATP1B3 set), 30 μM, Suppl. Table 11): 484.5 pmol/mg protein/min
Uptake transport activity, Mean (OATP1B3; [7]): 230.3 pmol/mg protein/min
Uptake transport activity, Repeat 1 / Repeat 2 (OATP1B3; [7]): 221.3 pmol/mg protein/min and 239.2 pmol/mg protein/min
Uptake transport activity, Mean (OATP1B3; [8]): 327.9 pmol/mg protein/min
Uptake transport activity, Repeat 1 / Repeat 2 (OATP1B3; [8]): 313.3 pmol/mg protein/min and 342.6 pmol/mg protein/min
Ratio of uptake transit activity (OATP1B3; [9]): 1.42
Uptake transport activity, Net value (OATP1B3; [9]): 97.7 pmol/mg protein/min
IC50 (ALK^C1156Y): 9.28 nM and < 10 nM
remaining rates in plasma after incubation for 5 h [1]: 95–109.3%
recovery ([1]; CD-1 (mouse), SD (rat), Beagle (dog), plasma, read-out: recovery rates in the dialysis device): 81.8 to 99.9%
uptake transport activity ratio, OCT2 (OCT2 [2]; 30 µM, 3 µM, 0.3 µM, HEK293): less than two
uptake substrate of OCT2 (OCT2 [2]; HEK293): not an uptake substrate
Uptake transport activity, Mean (OCT2 [2]; MOCK293 (OCT2 set), 0.3 μM): 7.280 pmol/mg protein/min
Uptake transport activity, Mean (OCT2 [2]; MOCK293 (OCT2 set), 3 μM): 80.35 pmol/mg protein/min
Uptake transport activity, Mean (OCT2 [2]; MOCK293 (OCT2 set), 30 μM): 999.8 pmol/mg protein/min
Uptake transport activity, Mean (OCT2 [2]; OCT2-293, 0.3 μM): 8.178 pmol/mg protein/min
Uptake transport activity, Mean (OCT2 [2]; OCT2-293, 3 μM): 88.23 pmol/mg protein/min
Uptake transport activity, Mean (OCT2 [2]; OCT2-293, 30 μM): 1165.9 pmol/mg protein/min
Ratio of uptake transit activity (OCT2 [2]; 0.3 μM): 1.12
Uptake transport activity, Net value (OCT2 [2]; 0.3 μM): 0.90 pmol/mg protein/min
Ratio of uptake transit activity (OCT2 [2]; 3 μM): 1.10
Uptake transport activity, Net value (OCT2 [2]; 3 μM): 7.88 pmol/mg protein/min
Ratio of uptake transit activity (OCT2 [2]; 30 μM): 1.17
Uptake transport activity, Net value (OCT2 [2]; 30 μM): 166.05 pmol/mg protein/min
inhibition of OCT2 uptake (OCT2 [3]): only a weak inhibitory effect
plasma protein binding rate ([4]; 0.2 µM, SD rats plasma): high protein binding rate
plasma protein binding rate ([4]; 0.2, 2 and 10 µM, Beagle dogs plasma): medium protein binding rate
plasma protein binding rate ([4]; 0.2, 2 and 10 µM, CD-1 mice plasma): medium protein binding rate
plasma protein binding rate ([4]; 0.2, 2 and 10 µM, Macaca fascicularis plasma): medium protein binding rate
plasma protein binding rate ([4]; 0.2, 2 and 10 µM, SD rats plasma): medium protein binding rate
plasma protein binding rate ([4]; 0.2, 2 and 10 µM, human plasma): medium protein binding rate; also recorded: moderate
BCRP inhibitor (BCRP; Caco-2): BCRP inhibitor
inhibition at 0.1 μM (BCRP; [10]): -11.1%
inhibition at 0.3 μM (BCRP; [10]): 37.7%
inhibition at 1 μM (BCRP; [10]): 8.3%
inhibition at 3 μM (BCRP; [10]): 50.9%
inhibition at 10 µM (BCRP; [10]): 97.2%
inhibition at 30 μM (BCRP; [10]): 26.3%
IC50 (EGFR wild type): 35 nM
uptake substrate of OAT3 (OAT3 [5]; HEK293): not an uptake substrate
Uptake transport activity, Mean (OAT3 [5]; [11]): 344.0 pmol/mg protein/min
Uptake transport activity, Repeat 1 / Repeat 2 (OAT3 [5]; [11]): 309.8 pmol/mg protein/min and 378.3 pmol/mg protein/min
Uptake transport activity, Mean (OAT3 [5]; [12]): 88.57 pmol/mg protein/min
Uptake transport activity, Repeat 1 / Repeat 2 (OAT3 [5]; [12]): 81.45 pmol/mg protein/min and 95.69 pmol/mg protein/min
Ratio of uptake transit activity (OAT3 [5]; [13]): 0.92
Uptake transport activity, Net value (OAT3 [5]; [13]): -255.5 pmol/mg protein/min
inhibitory effect on OAT3 (OAT3 [6]; HEK293): no significant inhibitory effect
inhibition at 0.5 μM (OAT3 [6]; [14]): 26.7%
inhibition at 5 μM (OAT3 [6]; [14]): 22.5%
inhibition at 50 μM (OAT3 [6]; [14]): 31.9%
efflux inhibitor of MRP2 (MRP2): not an efflux inhibitor
inhibition at 0.1 μM (MRP2; probe CDCF 5 μM, MRP2, substrate CDCF 5 μM, inhibitor 0.1 μM, read-out: Inhibition rate): -7.3%
inhibition at 0.3 μM (MRP2; probe CDCF 5 μM, MRP2, substrate CDCF 5 μM, inhibitor 0.3 μM, read-out: Inhibition rate): -8.8%
inhibition at 1 μM (MRP2; probe CDCF 5 μM, MRP2, substrate CDCF 5 μM, inhibitor 1 μM, read-out: Inhibition rate): -4.5%
inhibition at 3 μM (MRP2; probe CDCF 5 μM, MRP2, substrate CDCF 5 μM, inhibitor 3 μM, read-out: Inhibition rate): -4.2%
inhibition at 10 µM (MRP2; probe CDCF, MRP2, substrate CDCF 5 μM, inhibitor 10 μM, read-out: Inhibition rate): -3.8%
inhibition at 30 μM (MRP2; probe CDCF, MRP2, substrate CDCF 5 μM, inhibitor 30 μM, read-out: Inhibition rate): -2.8%
inhibition at 100 μM (MRP2; probe CDCF, MRP2, substrate CDCF 5 μM, inhibitor 100 μM, read-out: Inhibition rate): -7.3%
